# Data from ChEMBL document CHEMBL5365543, “Benzamidine Conjugation Converts Expelled Potential Active Agents into Antifungals against Drug-Resistant Fungi” (J Med Chem, 2023).
# The source made the active and inactive calls. The calls are words filed in the database; no cut-off is given here.
# Experiments:
# [1] = tested on: Candida albicans; experiment: microbe, parasite or virus in culture; assay type: functional; details: DSY654, time 24 hrs
# Description: Antifungal activity against efflux pump-deficient Candida albicans DSY654 assessed as inhibition of fungal growth measured after 24 hrs by CLSI based microtiter plate analysis
# [2] = Drug accumulation in wild-type Candida albicans SC5314 at 50 microg/ml incubated for 3 hrs by HPLC analysis; assay type: ADME; details: dose 50 µg/ml
# [3] = tested on: Candida albicans; experiment: Antifungal activity against wild-type Candida albicans SC5314 assessed as inhibition of fungal growth measured after 24 hrs by CLSI based microtiter plate analysis; assay type: functional
# [4] = tested on: Candida albicans; experiment: Antifungal activity against clinical isolate fluconazole-resistant Candida albicans Gu5 harbouring TAC1 mutation overexpressing efflux pump CdrL and Cdr2 assessed as inhibition of fungal growth measured after 24 hrs by CLSI based microtiter plate analysis; assay type: functional
# [5] = tested on: [Candida] auris; experiment: Antifungal activity against clinical isolate fluconazole-resistant Candida auris CBS12776 assessed as inhibition of fungal growth measured after 24 hrs by CLSI based microtiter plate analysis; assay type: functional; details: Candidozyma auris
# [6] = tested on: [Candida] auris; experiment: Antifungal activity against clinical isolate fluconazole-resistant Candida auris CBS12774 assessed as inhibition of fungal growth measured after 24 hrs by CLSI based microtiter plate analysis; assay type: functional; details: Candidozyma auris
# [7] = tested on: Candida albicans; experiment: Antifungal activity against clinical isolate Candida albicans SCUPC2R14MPG2A harbouring UPC2 mutation overexpressing […] Erg11 assessed as inhibition of fungal growth measured after 24 hrs by CLSI based microtiter plate analysis; assay type: functional
# [8] = tested on: Cryptococcus neoformans; experiment: Antifungal activity against clinical isolate fluconazole-resistant Cryptococcus neoformans H99 assessed as inhibition of fungal growth measured after 24 hrs by CLSI based microtiter plate analysis; assay type: functional
# [9] = tested on: Candida tropicalis; experiment: Antifungal activity against clinical isolate fluconazole-resistant Candida tropicalis CT10 assessed as inhibition of fungal growth measured after 24 hrs by CLSI based microtiter plate analysis; assay type: functional
# [10] = tested on: Candida albicans; experiment: Antifungal activity against clinical isolate fluconazole-resistant Candida albicans DSY296 harbouring TAC1 mutation overexpressing efflux pump CdrL and Cdr2 assessed as inhibition of fungal growth measured after 24 hrs by CLSI based microtiter plate analysis; assay type: functional
# [11] = tested on: Candida albicans; experiment: Antifungal activity against clinical isolate fluconazole-resistant Candida albicans G5 harbouring MRR1 mutation overexpressing MdrL assessed as inhibition of fungal growth measured after 24 hrs by CLSI based microtiter plate analysis; assay type: functional
# [12] = tested on: Candida albicans; experiment: Antifungal activity against clinical isolate Candida albicans YEM15 overexpressing efflux pump CdrL and Cdr2 assessed as inhibition of fungal growth measured after 24 hrs by CLSI based microtiter plate analysis; assay type: functional
# [13] = tested on: Nakaseomyces glabratus; experiment: Antifungal activity against clinical isolate fluconazole-resistant Candida glabrata CG2 assessed as inhibition of fungal growth measured after 24 hrs by CLSI based microtiter plate analysis; assay type: functional
# [14] = tested on: Candida albicans; experiment: Antifungal activity against clinical isolate fluconazole-resistant Candida albicans CA632 assessed as inhibition of fungal growth measured after 24 hrs by CLSI based microtiter plate analysis; assay type: functional
# [15] = tested on: Candida albicans; experiment: Antifungal activity against clinical isolate Candida albicans YEM13 overexpressing efflux pump MdrL assessed as inhibition of fungal growth measured after 24 hrs by CLSI based microtiter plate analysis; assay type: functional
# [16] = Candida albicans, SC5314, read-out: MIC80
structure (smiles),measurement,setting,value
C#C[C@]1(O)CC[C@H]2[C@@H]3CCC4=CCCC[C@@H]4[C@H]3C(=C)C[C@@]21CC [DESOGESTREL],MIC,[1],4 mg/L
same,Drug uptake,[2]; BLD = below limit of detection,Bld
CC1(C)CC[C@]2(C(=O)O)CC[C@]3(C)C(=CC[C@@H]4[C@@]5(C)CC[C@H](O)C(C)(C)[C@@H]5CC[C@]43C)[C@@H]2C1 [OLEANOLIC_ACID],Drug uptake,[2]; BLD = below limit of detection,Bld
same,MIC,"[3]; Candida albicans, SC5314",> 256 mg/L
C[C@@H]1CC[C@@]2(OC1)O[C@H]1C[C@H]3[C@@H]4CC=C5C[C@@H](OC(=O)CCCOc6ccc(C(=N)N)cc6)CC[C@]5(C)[C@H]4CC[C@]3(C)[C@H]1[C@@H]2C,Drug uptake,[2],Active
same,MIC80,[3]; [16],64 mg/L
O=C(O)c1ccccc1Nc1cccc(C(F)(F)F)c1 [FLUFENAMIC ACID],Drug uptake,[2]; BLD = below limit of detection,Bld
same,MIC,"[3]; Candida albicans, SC5314",> 256 mg/L
O=C(OCCOCCO)c1ccccc1Nc1cccc(C(F)(F)F)c1 [ETOFENAMATE],MIC,[1],16 mg/L
same,MIC,[3],inactive
CC1(C)C2CCC1(C)C(O)C2 (stereo unspecified) [BORNEOL],Drug uptake,[2]; BLD = below limit of detection,Bld
same,MIC,"[3]; Candida albicans, SC5314",> 256 mg/L
C=C1[C@H](O)[C@@]23CC[C@H]4[C@@](C)(CCC[C@@]4(C)C(=O)OCCCOc4ccc(C(=N)N)cc4)[C@@H]2CC[C@]1(O)C3,Drug uptake,[2],Active
same,MIC80,[3]; [16],64 mg/L
C=C1C(=O)[C@@]23CC[C@H]4[C@@](C)(CCC[C@@]4(C)C(=O)O)[C@@H]2CC[C@]1(O)C3,MIC,[1],256 mg/L
same,Drug uptake,[2]; BLD = below limit of detection,Bld
same,MIC,[3],inactive
Fc1ccc(C(c2ccc(F)cc2)N2CCNCC2)cc1,Drug uptake,[2]; BLD = below limit of detection,Bld
same,MIC,"[3]; Candida albicans, SC5314",> 256 mg/L
C[C@@H]1CC[C@@]2(OC1)O[C@H]1C[C@H]3[C@@H]4CC=C5C[C@@H](O)CC[C@]5(C)[C@H]4CC[C@]3(C)[C@H]1[C@@H]2C [DISOGENIN],Drug uptake,[2]; BLD = below limit of detection,Bld
same,MIC,"[3]; Candida albicans, SC5314",> 256 mg/L
C[C@@H]1[C@H](O)[C@@H](C)/C=C/C=C/C=C/C=C/C=C/C=C/C=C/[C@H](O[C@@H]2O[C@H](C)[C@@H](O)[C@H](N)[C@@H]2O)C[C@@H]2O[C@](O)(C[C@@H](O)C[C@@H](O)[C@H](O)CC[C@@H](O)C[C@@H](O)CC(=O)O[C@H]1C)C[C@H](O)[C@H]2C(=O)O [AMPHOTERICIN B],MIC80,[4],1 mg/L
same,MIC80,[5],1 mg/L
same,MIC80,[6],1 mg/L
same,MIC80,[7],0.5 mg/L
same,MIC80,[8],1 mg/L
same,MIC80,[9],2 mg/L
same,MIC80,[10],0.5 mg/L
same,MIC80,[11],0.5 mg/L
same,MIC80,[12],2 mg/L
same,MIC80,[13],0.5 mg/L
same,MIC80,[14],0.5 mg/L
same,MIC80,[15],0.5 mg/L
same,MIC80,"[3]; Candida albicans, SC5314, 24 h, read-out: MIC80",0.5 mg/L
C=C(C)[C@@H]1CC[C@]2(C(=O)O)CC[C@]3(C)[C@H](CC[C@@H]4[C@@]5(C)CC[C@H](O)C(C)(C)[C@@H]5CC[C@]43C)[C@@H]12 [BETULINIC ACID],Drug uptake,[2]; BLD = below limit of detection,Bld
same,MIC,"[3]; Candida albicans, SC5314",> 256 mg/L
Fc1ccc(C(c2ccc(F)cc2)N2CCN(C/C=C/c3ccccc3)CC2)cc1 [FLUNARIZINE],MIC,[1],8 mg/L
same,MIC,[3],inactive
COc1ccc2c(CCCI)c3[n+](cc2c1OC)CCc1cc2c(cc1-3)OCO2.[I-],MIC80,[1],16 mg/L
same,MIC80,[3]; [16],64 mg/L
Clc1ccc2c(c1)CCc1cccnc1C2=C1CCNCC1 [DESLORATADINE],Drug uptake,[2]; BLD = below limit of detection,Bld
CC1(C)[C@@H]2CC[C@@]1(C)[C@@H](OC(=O)CCCOc1ccc(C(=N)N)cc1)C2,Drug uptake,[2],Active
same,MIC80,[3]; [16],8 mg/L
C=C1C(=O)[C@@]2(C)CC[C@@H]3[C@@]1(CC[C@H]1[C@@]3(C)CCC[C@@]1(C)C(=O)OCCCCCCCCCOc1ccc(C(=N)N)cc1)C2,Drug uptake,[2]; BLD = below limit of detection,Bld
same,MIC,"[3]; Candida albicans, SC5314",32 mg/L
N=C(N)c1ccc(OCCCBr)cc1,MIC80,[1],> 256 mg/L
same,MIC80,[3]; [16],> 256 mg/L
C=C1[C@H](O)[C@@]23CC[C@H]4[C@@](C)(CCC[C@@]4(C)C(=O)O)[C@@H]2CC[C@]1(O)C3,Drug uptake,[2]; BLD = below limit of detection,Bld
same,MIC,"[3]; Candida albicans, SC5314",> 256 mg/L
CC(=O)O[C@H]1C[C@@]2(C)[C@@H](C[C@@H](O)[C@H]3[C@@]4(C)CC[C@@H](O)[C@@H](C)[C@@H]4CC[C@@]32C)/C1=C(\CCC=C(C)C)C(=O)O [FUSIDIC ACID],Drug uptake,[2]; BLD = below limit of detection,Bld
same,MIC,"[3]; Candida albicans, SC5314",> 256 mg/L
